Drawing on US20230083973A1, “SUBSTITUTED CYCLOPROPYL-2,2'-BIP[…], ANALOGUES THEREOF, AND METHODS USING SAME” (priority 2019, published 2023), this text covers EC50 for 15 molecules.

In this assay the test system is HBsAg. The assay can be described thus: HBsAg assay: inhibition of HBsAg in HepG2.2.15 cells (chemiluminescence immunoassay of supernatant). Format: cell-based, hepatitis B virus. Conditions: HBsAg in supernatant at day 6 after exposure to compound, 0.5% DMSO. A digest of the protocol:
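Secreted HBsAg quantified by CLIA in day-6 supernatants of HepG2.2.15 cultures given compound dilutions at 0.5% final DMSO, with one compound/medium replenishment after 2–3 days. Dose-response fits gave EC50 (50% inhibition); viability checked separately by CellTiter-Glo.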

Setting [1] is: read-out: sAg EC50, HepG2.2.15 cells.
Where [2] appears, read: Hepatitis B virus, HepG2.2.15, 144 h, read-out: sAg EC50, HepG2.2.15 cells.

Structures are written as SMILES. Like-named read-outs stand apart in the source and are kept apart here.

The term EC50 denotes the midpoint of the concentration-response curve. Take `Fc1cc(C2CC2c2cnc(-c3ncccn3)nc2)cc(N2CC(c3ccccc3)C2)c1F` (single isomer, unassigned) [Example 256, trans-5-(2-(3,4-Difluoro-5-(3-phenylazetidin-1-yl)phenyl)cyclopropyl)-2,2′-bipyrimidine]: the EC50 under setting [1] amounted to 0.028 µM. Consider `COc1cc(C2CC2c2ccc(-c3ncccn3)nc2)cc(F)c1F` (single isomer, unassigned) [Example 124, trans-2-(5-(2-(3,4-Difluoro-5-methoxyphenyl)cyclopropyl)pyridin-2-yl)pyrimidine], for which the 50% effective concentration (EC50) under setting [1] was 0.29 µM. In the case of `O[C@@H]1CCN(c2cc(C3CC3c3cnc(-c4ncccn4)nc3)cc(F)c2F)C1` (single isomer, unassigned) [Example 105], the concentration giving a half-maximal response (EC50) under setting [1] turned out to be 0.097 µM.

`Fc1ccc(C2CC2c2cnc(-c3ncccn3)nc2)cc1OCC(F)F` (single isomer, unassigned) [Example 28, trans-5-(2-(3-(2,2-Difluoroethoxy)-4-fluorophenyl)cyclopropyl)-2,2′-bipyrimidine]: under setting [1], the EC50 was determined as 0.056 µM. Regarding `c1cnc(-c2ncc([C@@H]3C[C@H]3c3ccc4ccccc4c3)cn2)nc1` (relative stereo) [Example 167, trans-5-(2-(Naphthalen-2-yl)cyclopropyl)-2,2′-bipyrimidine], the EC50 under setting [2] came to 0.18 µM. For `COc1cc(C2CC2c2cnc(-c3ncccn3)nc2)ccc1F` (single isomer, unassigned) [Example 11, trans-5-(2-(4-Fluoro-3-methoxyphenyl)cyclopropyl)-2,2′-bipyrimidine], the concentration giving a half-maximal response (EC50) under setting [1] was 0.73 µM.

For the molecule `COc1cc([C@@H]2C[C@H]2c2cnc(-c3ncccc3F)nc2)cc(F)c1F` (relative stereo) [Example 179, trans-5-(2-(3,4-Difluoro-5-methoxyphenyl)cyclopropyl)-2-(3-fluoropyridin-2-yl)pyrimidine], the EC50 under setting [2] was 0.37 µM. Same read-out and setting: the figure for `c1cnc(-c2ncc([C@@H]3C[C@H]3c3cnc4ccccn34)cn2)nc1` (relative stereo) [Example 170, trans-3-(2-([2,2′-Bipyrimidin]-5-yl)cyclopropyl)imidazo[1,2-a]pyridine] is 1 µM; for `c1cnc(-c2ncc([C@@H]3C[C@H]3c3cccc4ccccc34)cn2)nc1` (relative stereo) [Example 166, trans-5-(2-(Naphthalen-1-yl)cyclopropyl)-2,2′-bipyrimidine] it is 0.065 µM. Take `CCc1cc(F)c(OC)cc1C1CC1c1cnc(-c2ncccn2)nc1` (single isomer, unassigned) [Example 36, trans-5-(2-(2-Ethyl-4-fluoro-5-methoxyphenyl)cyclopropyl)-2,2′-bipyrimidine]: under setting [1], the EC50 was 0.72 µM. In the case of `COc1cccnc1-c1ncc([C@@H]2C[C@H]2c2cc(F)c(F)c(OC)c2)cn1` (relative stereo) [Example 180, trans-5-(2-(3,4-Difluoro-5-methoxyphenyl)cyclopropyl)-2-(3-methoxypyridin-2-yl)pyrimidine], the EC50 under setting [2] came out at 1 µM.

For `COc1c(Cl)ccc(C2CC2c2cnc(-c3ncccn3)nc2)c1C` (single isomer, unassigned) [Example 72, trans-5-(2-(4-Chloro-3-methoxy-2-methylphenyl)cyclopropyl)-2,2′-bipyrimidine], the half-maximal effective concentration (EC50) under setting [1] was 0.089 µM. Consider `Fc1cc(C2CC2c2cnc(-c3ncccn3)nc2)cc(-n2ccnc2)c1F` (single isomer, unassigned) [Example 182, trans-5-(2-(3,4-Difluoro-5-(1H-imidazol-1-yl)phenyl)cyclopropyl)-2,2′-bipyrimidine], for which, under setting [1], the concentration giving a half-maximal response (EC50) worked out at 0.064 µM.

For `COc1ccc([C@@H]2C[C@H]2c2cnc(-c3ncccn3)nc2)c(F)c1` (relative stereo) [Example 1, trans-5-(2-(2-Fluoro-4-methoxyphenyl)cyclopropyl)-2,2′-bipyrimidine], the EC50 under setting [2] was 0.2 µM. As for `Fc1ccc(C2CN(c3cc([C@@H]4C[C@H]4c4cnc(-c5ncccn5)nc4)cc(F)c3F)C2)cc1F` (relative stereo) [Example 214, trans-5-(2-(3-(3-(3,4-difluorophenyl)azetidin-1-yl)-4,5-difluorophenyl)cyclopropyl)-2,2′-bipyrimidine], the EC50 under setting [2] came out at 0.046 µM.
